This note sets out measurements from patent US20220296595A1, “CDK INHIBITORS” (QILU REGOR THERAPEUTICS INC., priority 2019, published 2022).

One test concerns the target T1, CDK6/CyclinD3 (Homo sapiens, UniProt Q00534).
T1 construct: purchased Carna 04-107
The test can be described thus: Assay for inhibition of CDK6/CyclinD3 (Caliper microfluidic kinase assay). Type of test: biochemical. The conditions noted are these: CDK6/CyclinD3, 300 μM ATP. As to the method:
(§1) The CDK6 enzyme assay for IC50 determination was performed as follows. Microfluidic kinase detection technology (Caliper) was used to monitor the phosphorylation of peptide substrate by CDK6/CyclinD3. The total reaction volume is 15 μL containing buffer A (100 mM HEPES (pH 7.5), 0.1% BSA, 0.01% Triton X-100, 1 mM DTT, 10 mM MgCl2, 10 μM Sodium Orthovanadate, 10 μM Beta-Glycerophosphate), 300 μM ATP, 2 nM CDK6/CyclinD3 (Carna, 04-107), 1 μM FL-34 (5-FAM-[…]), and the test compound at appropriate dilutions in DMSO. All components were added to the 384-well plate (Corning, 4514), and incubated at Room Temperature for 3 hours. The reaction was terminated by addition of 15 μL Stop Buffer (180 mM HEPES (pH 7.5), 20 mM EDTA, Coating-3 reagent (PerkinElmer, 760050)). The plate was then loaded on Caliper EZ Reader (EZ Reader II, PerkinElmer, HD-4HYSG2772), and the reaction mixtures including substrate and product were sipped into the microfluidic chip for separation and detection. The IC50 values of the test compound were determined by fitting the inhibition curves by 4 parameter sigmoidal dose-response model using the Xlfit5/GraphPad Prism 5 software.

The next test has as its target T2, CDK4/CyclinD1 (Homo sapiens, UniProt P11802).
T2 construct: purchased Thermofisher PR8064A
The test can be described thus: Assay for inhibition of CDK4/CyclinD1 (Caliper microfluidic kinase assay). Type of test: biochemical. As for the experimental part:
as §1, with “The CDK4” for “The CDK6”, “by CDK4/CyclinD1.” for “by CDK6/CyclinD3.”, “volume was” for “volume is”, “Beta-Glycerophosphate), 200” for “Beta-Glycerophosphate), 300”, “ATP, 1” for “ATP, 2”, “nM CDK4/CyclinD1 (Thermofisher, PR8064A),” for “nM CDK6/CyclinD3 (Carna, 04-107),”

In a further test the target is T3, CDK2/CyclinE1 (Homo sapiens, UniProt P24941).
T3 construct: purchased SignalChem C29-18G
The test can be described thus: Assay for inhibition of CDK2/CyclinE1 (Caliper microfluidic kinase assay). It counts as biochemical. The settings on record: read-out: CDK2 IC50. As for the experimental part:
The CDK2 enzyme assay for IC50 determination was performed as follows. Microfluidic kinase detection technology (Caliper) was used to monitor the phosphorylation of peptide substrate by CDK2/CyclinE1. The total reaction volume was 15 μL containing buffer A (100 mM HEPES (pH 7.5), 0.1% BSA, 0.01% Triton X-100, 1 mM DTT, 10 mM MgCl2, 10 μM Sodium Orthovanadate, 10 μM Beta-Glycerophosphate), 100 μM ATP, 5 nM CDK2/CyclinE1 (SignalChem, C29-18G), 5 μM FL-18 (5-FAM-QSPKKG-NH2), and the test compound at appropriate dilutions in DMSO. All components were added to the 384-well plate (Corning, 4514), and incubate at Room Temperature for 3 hours. The reaction was terminated by addition of 15 μL Stop Buffer (180 mM HEPES (pH 7.5), 20 mM EDTA, Coating-3 reagent (PerkinElmer, 760050)). The plate was loaded on Caliper EZ Reader (EZ Reader II, PerkinElmer, HD-4HYSG2772), and the reaction mixtures including substrate and product were sipped into the microfluidic chip for separation and detection. The IC50 values of the test compound were determined by fitting the inhibition curves by 4 parameter sigmoidal dose-response model using the Xlfit5/GraphPad Prism 5 software.

A further test concerns T47D breast cancer cells. The test can be described thus: Anti-proliferation assay in T47D cell (Cyquant, day 6). It counts as cell-based, human. The settings on record: Homo sapiens, T47D, anti-proliferation, T47D cells; read-out: T47D IC50. An excerpt:
T47D is a human breast cancer cell line commonly used in biomedical research involving the hormonal expression of cancer cells. T47D cells are distinct from other human breast cancer cells in that their progesterone receptors (PR) are not regulated by estradiol, a hormone that is abundant within the cells themselves. T47D cells have been employed in studies of the effects of progesterone on breast cancer and the corresponding transcriptional regulation caused by introduced drugs. The cells have been noted to be extremely resistant to estrogens and antiestrogens.
T47D breast cancer cells from American Type Culture Collection (ATCC, HTB-133) were plated at 3000 cells/well in 96-well plates, and were incubated in RPMI 1640 medium (Gibco, 31800105) with 10% Fetal Bovine Serum (FBS, Biowest, FB-1058) at 37° C., 5% CO2. After overnight incubation, baseline values were measured of the samples from one plate using Cyquant reagent (Invitrogen, C35011) following manufacturer's recommendations. Cells were incubated with the detection reagent for 1 hour at 37° C., and then the fluorescence was measured with excitation at 485 nm and emission at 535 nm using Spectra Max M5 (Molecular Devices, HD-4HYSG3196). Other plates were dosed with compounds at a ten-point dose concentration from 10 μM to 0.51 nM in a 3-fold dilution scheme. On day 6 after compound addition, Cyquant reagent was added and the fluorescence was measured using Spectra Max M5. The IC50 values of the test compound's anti-proliferation activity were determined from the baseline subtracted viability readout curve using Xlfit5/GraphPad Prism 5 software.

Each structure is given as a SMILES string. Where two headings read alike, the source gives them in different places.

T2 sequence (P11802 whole entry): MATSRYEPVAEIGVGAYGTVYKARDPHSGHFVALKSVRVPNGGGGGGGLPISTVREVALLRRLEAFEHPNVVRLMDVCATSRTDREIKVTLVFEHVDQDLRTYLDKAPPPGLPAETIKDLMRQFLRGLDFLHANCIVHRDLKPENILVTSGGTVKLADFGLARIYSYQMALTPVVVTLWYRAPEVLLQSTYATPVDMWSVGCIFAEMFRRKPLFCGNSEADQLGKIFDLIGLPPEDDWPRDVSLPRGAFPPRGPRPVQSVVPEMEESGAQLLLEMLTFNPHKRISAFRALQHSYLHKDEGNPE
T2 sequence (P24385 whole entry partner): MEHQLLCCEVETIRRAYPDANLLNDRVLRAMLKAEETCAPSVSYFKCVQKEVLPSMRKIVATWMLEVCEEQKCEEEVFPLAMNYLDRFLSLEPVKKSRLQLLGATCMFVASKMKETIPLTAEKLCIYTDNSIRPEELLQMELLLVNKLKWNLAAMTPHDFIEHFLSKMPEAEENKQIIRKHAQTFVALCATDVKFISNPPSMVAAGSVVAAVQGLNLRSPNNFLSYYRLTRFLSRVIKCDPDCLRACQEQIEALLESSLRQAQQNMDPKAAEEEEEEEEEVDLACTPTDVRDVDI
T1 sequence (Q00534 whole entry): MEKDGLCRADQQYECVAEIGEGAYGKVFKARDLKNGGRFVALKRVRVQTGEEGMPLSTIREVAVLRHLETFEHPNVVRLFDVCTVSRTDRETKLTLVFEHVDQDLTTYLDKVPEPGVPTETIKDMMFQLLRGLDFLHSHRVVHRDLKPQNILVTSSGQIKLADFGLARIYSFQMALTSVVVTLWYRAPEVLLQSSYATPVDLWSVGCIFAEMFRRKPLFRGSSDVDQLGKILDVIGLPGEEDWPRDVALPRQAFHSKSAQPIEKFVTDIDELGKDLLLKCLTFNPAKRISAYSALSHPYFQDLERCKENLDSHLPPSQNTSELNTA
T1 sequence (P30281 whole entry partner): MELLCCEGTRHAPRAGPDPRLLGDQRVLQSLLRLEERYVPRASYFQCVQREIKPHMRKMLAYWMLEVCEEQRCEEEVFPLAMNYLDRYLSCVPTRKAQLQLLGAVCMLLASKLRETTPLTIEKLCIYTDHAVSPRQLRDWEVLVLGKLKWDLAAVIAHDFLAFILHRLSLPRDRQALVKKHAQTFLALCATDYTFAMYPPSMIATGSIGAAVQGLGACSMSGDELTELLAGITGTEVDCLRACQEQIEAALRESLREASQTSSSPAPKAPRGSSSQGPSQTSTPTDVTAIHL

A word on the IC50: it is the concentration that gives 50% inhibition. `CC(C)c1cnn2ccc(-c3ccnc(Nc4ccc(N5CCNCC5=O)nc4)n3)cc12` [compound 35] registered an IC50 on CDK6/CyclinD3 of 10 to 100 nM.
As for `CC(C)n1cnc2c1CN(c1ccnc(Nc3ccc(N4CCCC(N)C4=O)cc3)n1)CC2` (stereo not shown) [compound 246], the IC50 was under 10 nM against CDK4/CyclinD1 (CDK4/CyclinD1, 200 μM ATP); 100 to 1000 nM on CDK2/CyclinE1 (CDK2/CyclinE1, 100 μM ATP); 500 to 1000 nM in the test with T47D breast cancer cells.
The matching figures for `CC(C)n1cnc2c1CN(c1nc(Nc3ccc(N4CCCC(N)C4=O)cc3)ncc1F)CC2` (stereo not shown) [compound 247]: under 10 nM, 10 to 100 nM and under 100 nM.
The matching figures for `CNC1CCCN(c2ccc(Nc3ncc(F)c(N4CCc5ncn(C(C)C)c5C4)n3)cc2)C1=O` (stereo not shown) [compound 248]: under 10 nM, 10 to 100 nM and under 100 nM.
Turning to `CC(C)n1cnc2c1CN(c1nc(Nc3ccc(N4CCCC(N(C)C)C4=O)cc3)ncc1F)CC2` (stereo not shown) [compound 249], the IC50 was under 10 nM at CDK4/CyclinD1 (CDK4/CyclinD1, 200 μM ATP); 10 to 100 nM at CDK2/CyclinE1 (CDK2/CyclinE1, 100 μM ATP); under 100 nM in the test with T47D breast cancer cells.
The matching figures for `CC(C)N1CCN(c2ccc(Nc3ncc(F)c(N4CCc5ncn(C(C)C)c5C4)n3)nc2)CC1` [compound 250]: under 10 nM, 100 to 1000 nM and under 100 nM.
The matching figures for `CC(C)n1cnc2c1CN(c1nc(Nc3ccc(N4CCCC(N(C)C)C4)cc3)ncc1F)CC2` (stereo not shown) [compound 252]: under 10 nM, under 10 nM and under 100 nM.
The matching figures for `CC(C)n1cnc2c1CN(c1nc(Nc3ccc(N4CCCNC4=O)cc3)ncc1F)CC2` [compound 253]: under 10 nM, 10 to 100 nM and under 100 nM.
As for `CC(C)n1cnc2c1CN(c1nc(Nc3ccc(N4CCNCC4=O)cc3)ncc1F)CC2` [compound 257], the half-inhibitory concentration (IC50) on CDK4/CyclinD1 (CDK4/CyclinD1, 200 μM ATP) is under 10 nM; at CDK2/CyclinE1 (CDK2/CyclinE1, 100 μM ATP) it was under 10 nM; with T47D breast cancer cells it was under 100 nM.
On to `CC1(N)CCN(c2ccc(Nc3nccc(-c4cc(F)c5c(c4)C4(CCCC4)CO5)n3)nc2)C(=O)C1` (stereo not shown) [compound 260], for which the 50% inhibitory concentration (IC50) on CDK4/CyclinD1 (CDK4/CyclinD1, 200 μM ATP) was under 10 nM; on CDK2/CyclinE1 (CDK2/CyclinE1, 100 μM ATP) it was 10 to 100 nM; in the test on T47D breast cancer cells it was under 100 nM.
The matching figures for `CC1(C)COc2c(F)cc(-c3ccnc(Nc4ccc(N5CCCC(N)C5=O)cc4)n3)cc21` (stereo not shown) [compound 263]: under 10 nM, 10 to 100 nM and under 100 nM.
The matching figures for `CNC1CCCN(c2ccc(Nc3nccc(-c4cc(F)c5c(c4)C(C)(C)CO5)n3)cc2)C1=O` (stereo not shown) [compound 265]: under 10 nM, 10 to 100 nM and under 100 nM.
`CN(C)C1CCCN(c2ccc(Nc3nccc(-c4cc(F)c5c(c4)C(C)(C)CO5)n3)cc2)C1=O` (stereo not shown) [compound 266]: the IC50 against CDK4/CyclinD1 (CDK4/CyclinD1, 200 μM ATP) was under 10 nM; at CDK2/CyclinE1 (CDK2/CyclinE1, 100 μM ATP), 100 to 1000 nM; in the test with T47D breast cancer cells, under 100 nM.
The matching figures for `CC(C)n1cnc2c(F)nc(-c3ccnc(Nc4ccc(N5CCN(C6CC6)CC5)cn4)n3)cc21` [compound 267]: under 10 nM, 100 to 1000 nM and under 100 nM.
The matching figures for `CC(C)n1cnc2c(F)nc(-c3ccnc(Nc4ccc(N5CCC(N(C)C)C5=O)cc4)n3)cc21` (stereo not shown) [compound 268]: under 10 nM, 10 to 100 nM and under 100 nM.
The matching figures for `Cc1nc2c(F)nc(-c3ccnc(Nc4ccc(N5CCN(C(C)C)CC5)cn4)n3)cc2n1C(C)C` [compound 269]: under 10 nM, over 1000 nM and under 100 nM.
Consider `CNC1CCCN(c2ccc(Nc3nccc(-c4cc5c(ncn5C(C)C)c(F)n4)n3)nc2)C1=O` (stereo not shown) [compound 284], for which the half-inhibitory concentration (IC50) at CDK4/CyclinD1 (CDK4/CyclinD1, 200 μM ATP) is under 10 nM; on CDK2/CyclinE1 (CDK2/CyclinE1, 100 μM ATP) it was over 1000 nM; in the test with T47D breast cancer cells, under 100 nM.
Take `CNC1CCCN(c2ccc(Nc3nccc(-c4cc5c(ncn5C(C)C)c(F)n4)n3)cc2)C1=O` (stereo not shown) [compound 294]: the IC50 on CDK4/CyclinD1 (CDK4/CyclinD1, 200 μM ATP) is under 10 nM; on CDK2/CyclinE1 (CDK2/CyclinE1, 100 μM ATP) it was 10 to 100 nM; in the test on T47D breast cancer cells it was under 100 nM.
In the case of `Cc1nc2c(F)nc(-c3ccnc(Nc4ccc(N5CCC(N(C)C)CC5=O)cc4)n3)cc2n1C(C)C` (stereo not shown) [compound 295], the 50% inhibitory concentration (IC50) against CDK4/CyclinD1 (CDK4/CyclinD1, 200 μM ATP) was under 10 nM; on CDK2/CyclinE1 (CDK2/CyclinE1, 100 μM ATP), under 10 nM; in the test with T47D breast cancer cells, under 100 nM.
As for `CNC1CCCN(c2ccc(Nc3ncc(C)c(-c4cc5c(ncn5C(C)C)c(F)n4)n3)cc2)C1=O` (stereo not shown) [compound 298], the IC50 was under 10 nM at CDK4/CyclinD1 (CDK4/CyclinD1, 200 μM ATP); 100 to 1000 nM on CDK2/CyclinE1 (CDK2/CyclinE1, 100 μM ATP); under 100 nM in the test with T47D breast cancer cells.
The matching figures for `CNC1CCCN(c2ccc(Nc3ncc(Cl)c(-c4cc5c(ncn5C(C)C)c(F)n4)n3)cc2)C1=O` (stereo not shown) [compound 299]: under 10 nM, 100 to 1000 nM and under 100 nM.
For `CC(C)n1cnc2c(F)nc(-c3nc(Nc4ccc(N5CCCC(N(C)C)C5=O)cn4)ncc3F)cc21` (stereo not shown) [compound 300], the IC50 was under 10 nM against CDK4/CyclinD1 (CDK4/CyclinD1, 200 μM ATP); over 1000 nM on CDK2/CyclinE1 (CDK2/CyclinE1, 100 μM ATP); under 100 nM with T47D breast cancer cells.
The matching figures for `CC(C)n1cnc2c(F)nc(-c3ccnc(Nc4ccc(N5CCCC(N(C)C)C5=O)cc4)n3)cc21` (stereo not shown) [compound 304]: under 10 nM, 10 to 100 nM and under 100 nM.
In the case of `CC(C)n1cnc2c(F)nc(-c3ccnc(Nc4ccc(N5CCCC(N)C5=O)cc4F)n3)cc21` (stereo not shown) [compound 306], the IC50 against CDK4/CyclinD1 (CDK4/CyclinD1, 200 μM ATP) is under 10 nM; on CDK2/CyclinE1 (CDK2/CyclinE1, 100 μM ATP) it was 10 to 100 nM; with T47D breast cancer cells, under 100 nM.
The matching figures for `CC(C)n1cnc2c(F)nc(-c3ccnc(Nc4ccc(N5CCN(C(C)(C)C)CC5)cn4)n3)cc21` [compound 308]: under 10 nM, 100 to 1000 nM and under 100 nM.
For the molecule `CC(C)n1cnc2c(F)nc(-c3ccnc(Nc4ccc(N5CCN(CCF)CC5)cn4)n3)cc21` [compound 309], the IC50 was under 10 nM against CDK4/CyclinD1 (CDK4/CyclinD1, 200 μM ATP); 100 to 1000 nM on CDK2/CyclinE1 (CDK2/CyclinE1, 100 μM ATP); under 100 nM with T47D breast cancer cells.
Regarding `COc1nc(-c2ccnc(Nc3ccc(N4CCCC(N(C)C)C4=O)cc3)n2)cc2c1ncn2C(C)C` (stereo not shown) [compound 311], the half-inhibitory concentration (IC50) against CDK4/CyclinD1 (CDK4/CyclinD1) is under 10 nM; at CDK2/CyclinE1 (CDK2/CyclinE1), 100 to 1000 nM; in the test with T47D breast cancer cells, under 100 nM.
